Laboratory results reported in ChEMBL document CHEMBL3862033 (J Med Chem, 2016).

Target: 5-hydroxytryptamine receptor 5A (Homo sapiens) (UniProt P47898)
Assay: Displacement of [3H]LSD from human 5-HT5A receptor expressed in Flp-In-CHO cell membranes incubated for 90 mins under dark condition by microbeta scintillation counting method relative to control
Set-up: concentration or dose not given beside the values
Conditions: not given

Chain of 5-hydroxytryptamine receptor 5A (Homo sapiens) (P47898 whole entry): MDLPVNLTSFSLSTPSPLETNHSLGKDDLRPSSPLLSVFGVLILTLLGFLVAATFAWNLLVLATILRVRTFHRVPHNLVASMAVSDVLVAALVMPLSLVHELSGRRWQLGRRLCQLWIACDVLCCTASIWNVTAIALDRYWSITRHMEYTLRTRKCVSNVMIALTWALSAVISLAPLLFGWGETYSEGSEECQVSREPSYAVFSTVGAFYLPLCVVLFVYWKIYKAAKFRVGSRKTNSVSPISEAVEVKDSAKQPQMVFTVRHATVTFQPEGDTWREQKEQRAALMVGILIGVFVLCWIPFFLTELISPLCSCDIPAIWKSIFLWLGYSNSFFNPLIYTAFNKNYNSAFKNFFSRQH

`OC[C@H]1O[C@@H](n2cnc3c(NC(C4CC4)C4CC4)ncnc32)[C@H](O)[C@@H]1O` was tested. Which inhibition did it give?
Its inhibition is < 50%.

Target: 5-hydroxytryptamine receptor 4 (Homo sapiens) (UniProt Q13639)
Assay: Displacement of [3H]GR113808 from human 5-HT4 receptor at 10 uM incubated for 90 mins under dark condition by microbeta scintillation counting method relative to control
Conditions: not given

Chain of 5-hydroxytryptamine receptor 4 (Homo sapiens) (Q13639 whole entry): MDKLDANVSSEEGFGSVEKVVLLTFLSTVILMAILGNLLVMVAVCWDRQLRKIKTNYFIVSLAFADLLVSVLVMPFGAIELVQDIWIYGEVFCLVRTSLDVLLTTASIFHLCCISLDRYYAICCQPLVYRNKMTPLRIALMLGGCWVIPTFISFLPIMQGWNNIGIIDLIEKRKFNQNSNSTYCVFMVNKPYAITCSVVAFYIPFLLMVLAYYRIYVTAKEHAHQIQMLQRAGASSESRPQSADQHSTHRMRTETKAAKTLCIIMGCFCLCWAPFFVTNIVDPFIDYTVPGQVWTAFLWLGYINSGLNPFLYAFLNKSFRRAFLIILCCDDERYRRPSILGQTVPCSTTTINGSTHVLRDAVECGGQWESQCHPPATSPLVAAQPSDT

Which inhibition does the source give for `OC[C@H]1O[C@@H](n2cnc3c(NC(C4CC4)C4CC4)ncnc32)[C@H](O)[C@@H]1O` here?
The inhibition was < 50%.

Target: T1, 5-hydroxytryptamine receptor 2B (Homo sapiens, UniProt P41595)
Assay: not given
Conditions: HEK293, at 10 µM

T1 sequence (P41595 whole entry): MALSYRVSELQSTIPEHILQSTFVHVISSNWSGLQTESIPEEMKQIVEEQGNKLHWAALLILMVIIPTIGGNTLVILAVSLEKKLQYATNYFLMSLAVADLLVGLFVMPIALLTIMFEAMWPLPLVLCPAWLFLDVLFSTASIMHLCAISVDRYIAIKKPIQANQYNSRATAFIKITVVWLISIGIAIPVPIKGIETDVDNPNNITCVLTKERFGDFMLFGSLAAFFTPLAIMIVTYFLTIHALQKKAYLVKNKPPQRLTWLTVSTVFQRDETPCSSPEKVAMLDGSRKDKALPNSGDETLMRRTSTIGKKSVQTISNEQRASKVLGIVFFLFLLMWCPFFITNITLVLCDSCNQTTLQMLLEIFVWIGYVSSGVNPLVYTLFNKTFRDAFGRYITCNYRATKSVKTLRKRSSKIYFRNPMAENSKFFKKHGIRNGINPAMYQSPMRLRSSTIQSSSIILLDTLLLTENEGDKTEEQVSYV

With `OC[C@H]1O[C@@H](n2cnc3c(NC(C4CC4)C4CC4)ncnc32)[C@H](O)[C@@H]1O` as the compound, how does the inhibition read?
Its inhibition is 38%.

Target: T2, 5-hydroxytryptamine receptor 2A (Homo sapiens, UniProt P28223)
Assay: Displacement of [3H]ketanserin from human 5-HT2A receptor expressed in HEK-T cell membranes incubated for 90 mins under dark condition by microbeta scintillation counting method
Conditions: not given

T2 sequence (P28223 whole entry): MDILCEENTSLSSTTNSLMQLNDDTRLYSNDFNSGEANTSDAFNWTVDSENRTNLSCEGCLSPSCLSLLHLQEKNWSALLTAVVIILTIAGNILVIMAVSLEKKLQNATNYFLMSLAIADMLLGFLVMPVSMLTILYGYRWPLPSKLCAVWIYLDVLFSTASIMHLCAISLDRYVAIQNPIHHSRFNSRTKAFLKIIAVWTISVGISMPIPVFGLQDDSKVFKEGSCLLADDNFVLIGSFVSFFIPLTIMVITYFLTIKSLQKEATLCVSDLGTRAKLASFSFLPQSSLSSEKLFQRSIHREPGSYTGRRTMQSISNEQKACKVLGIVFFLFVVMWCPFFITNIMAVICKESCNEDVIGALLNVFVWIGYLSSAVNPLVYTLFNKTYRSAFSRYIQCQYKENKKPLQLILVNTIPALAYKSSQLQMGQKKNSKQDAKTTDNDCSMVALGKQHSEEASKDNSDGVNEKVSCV

With `CNC(=O)[C@H]1O[C@@H](n2cnc3c(NCc4cccc(I)c4)nc(Cl)nc32)[C@H](O)[C@@H]1O` [NAMODENOSON] as the compound, how does the Ki read?
Its Ki is > 10 µM.

For `O[C@@H]1[C@H](O)[C@@H]2C[C@@H]2[C@H]1n1cnc2c(NC(C3CC3)C3CC3)nc(Cl)nc21`, which Ki is on record?
Its Ki is > 10 µM.

`OC[C@H]1O[C@@H](n2cnc3c(NC(C4CC4)C4CC4)ncnc32)[C@H](O)[C@@H]1O` was tested. Which Ki did it give?
Its Ki is > 10 µM.

Target: 5-hydroxytryptamine receptor 1B (Homo sapiens) (UniProt P28222)
Assay: Displacement of [3H]5-CT from human 5-HT1BR expressed in HEK cell membranes at 10 uM incubated for 90 mins under dark condition by microbeta scintillation counting method relative to control
Conditions: HEK293

Chain of 5-hydroxytryptamine receptor 1B (Homo sapiens) (P28222 whole entry): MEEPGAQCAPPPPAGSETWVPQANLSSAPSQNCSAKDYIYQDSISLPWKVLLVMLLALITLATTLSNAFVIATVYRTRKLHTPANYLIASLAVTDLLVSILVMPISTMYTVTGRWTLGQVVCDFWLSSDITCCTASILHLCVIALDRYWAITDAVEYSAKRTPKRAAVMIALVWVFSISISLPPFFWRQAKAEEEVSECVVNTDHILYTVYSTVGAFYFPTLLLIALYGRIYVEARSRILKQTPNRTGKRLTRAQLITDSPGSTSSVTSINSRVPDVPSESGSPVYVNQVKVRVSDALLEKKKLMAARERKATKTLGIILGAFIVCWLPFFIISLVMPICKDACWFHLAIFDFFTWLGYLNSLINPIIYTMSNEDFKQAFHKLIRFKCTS

Which inhibition does the source give for `OC[C@H]1O[C@@H](n2cnc3c(NC(C4CC4)C4CC4)ncnc32)[C@H](O)[C@@H]1O` here?
The inhibition was < 50%.

Target: T3, 5-hydroxytryptamine receptor 1A (Homo sapiens) (UniProt P08908)
T3 sequence (whole entry): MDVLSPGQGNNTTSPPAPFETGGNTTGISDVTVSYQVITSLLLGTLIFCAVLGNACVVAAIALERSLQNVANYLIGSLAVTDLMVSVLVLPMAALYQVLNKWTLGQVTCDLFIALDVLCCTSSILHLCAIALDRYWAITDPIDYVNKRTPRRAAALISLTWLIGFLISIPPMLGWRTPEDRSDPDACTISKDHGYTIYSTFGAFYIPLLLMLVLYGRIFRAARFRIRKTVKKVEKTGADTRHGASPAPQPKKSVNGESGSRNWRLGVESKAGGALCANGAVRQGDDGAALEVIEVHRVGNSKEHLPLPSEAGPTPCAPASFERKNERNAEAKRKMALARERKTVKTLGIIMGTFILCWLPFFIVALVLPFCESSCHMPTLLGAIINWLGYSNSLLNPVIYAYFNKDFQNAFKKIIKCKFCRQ
Assay: Displacement of [3H]WAY100635 from human 5-HT1AR expressed in CHO cell membranes at 10 uM incubated for 90 mins under dark condition by microbeta scintillation counting method relative to control
Conditions: not given

`OC[C@H]1O[C@@H](n2cnc3c(NC(C4CC4)C4CC4)ncnc32)[C@H](O)[C@@H]1O` was tested. Which inhibition did it give?
Its inhibition is < 50%.

Target: T1, 5-hydroxytryptamine receptor 2B
Assay: biochemical
Type: cell-based, HEK293
Conditions: not given

For `CNC(=O)[C@H]1O[C@@H](n2cnc3c(NCc4cccc(I)c4)nc(Cl)nc32)[C@H](O)[C@@H]1O` [NAMODENOSON], which Ki is on record?
Its Ki is 2.77 µM.

`O[C@@H]1[C@H](O)[C@@H]2C[C@@H]2[C@H]1n1cnc2c(NC(C3CC3)C3CC3)nc(Cl)nc21` was tested. Which Ki did it give?
Its Ki is 0.675 µM.

Target: T4, 5-hydroxytryptamine receptor 3A (Homo sapiens) (UniProt P46098)
T4 sequence (whole entry): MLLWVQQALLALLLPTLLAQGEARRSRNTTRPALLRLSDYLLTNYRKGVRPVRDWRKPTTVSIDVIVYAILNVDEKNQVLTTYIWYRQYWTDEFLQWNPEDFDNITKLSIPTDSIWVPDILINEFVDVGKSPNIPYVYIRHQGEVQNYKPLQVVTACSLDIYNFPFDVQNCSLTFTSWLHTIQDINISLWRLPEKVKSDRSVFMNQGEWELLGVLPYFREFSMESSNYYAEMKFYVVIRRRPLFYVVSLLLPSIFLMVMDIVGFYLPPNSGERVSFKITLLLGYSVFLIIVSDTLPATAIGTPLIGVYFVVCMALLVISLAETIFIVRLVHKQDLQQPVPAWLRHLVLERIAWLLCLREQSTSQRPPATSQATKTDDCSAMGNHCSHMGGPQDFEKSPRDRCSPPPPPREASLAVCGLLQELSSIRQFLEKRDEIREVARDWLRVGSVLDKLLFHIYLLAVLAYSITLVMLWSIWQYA
Assay: Displacement of [3H]GR65630 from human 5-HT3 receptor expressed in HEK-T cell membranes at 10 uM incubated for 90 mins under dark condition by microbeta scintillation counting method relative to control
Conditions: not given

With `OC[C@H]1O[C@@H](n2cnc3c(NC(C4CC4)C4CC4)ncnc32)[C@H](O)[C@@H]1O` as the compound, how does the inhibition read?
Its inhibition is < 50%.

Target: T2, 5-hydroxytryptamine receptor 2A
Assay: Displacement of [3H]ketanserin from human 5-HT2A receptor expressed in HEK-T cell membranes at 10 uM incubated for 90 mins under dark condition by microbeta scintillation counting method relative to control
Conditions: not given

For `CNC(=O)[C@H]1O[C@@H](n2cnc3c(NCc4cccc(I)c4)nc(Cl)nc32)[C@H](O)[C@@H]1O` [NAMODENOSON], which inhibition is on record?
The inhibition was 30%.

How did the inhibition turn out when `O[C@@H]1[C@H](O)[C@@H]2C[C@@H]2[C@H]1n1cnc2c(NC(C3CC3)C3CC3)nc(Cl)nc21` was run?
Its inhibition is < 10%.

For `OC[C@H]1O[C@@H](n2cnc3c(NC(C4CC4)C4CC4)ncnc32)[C@H](O)[C@@H]1O`, which inhibition is on record?
Its inhibition is < 10%.

Target: 5-hydroxytryptamine receptor 7 (Homo sapiens) (UniProt P34969)
Assay: Displacement of [3H]LSD from human 5-HT7A receptor expressed in HEK cell membranes at 10 uM incubated for 90 mins under dark condition by microbeta scintillation counting method relative to control
Conditions: HEK293

Chain of 5-hydroxytryptamine receptor 7 (Homo sapiens) (P34969 whole entry): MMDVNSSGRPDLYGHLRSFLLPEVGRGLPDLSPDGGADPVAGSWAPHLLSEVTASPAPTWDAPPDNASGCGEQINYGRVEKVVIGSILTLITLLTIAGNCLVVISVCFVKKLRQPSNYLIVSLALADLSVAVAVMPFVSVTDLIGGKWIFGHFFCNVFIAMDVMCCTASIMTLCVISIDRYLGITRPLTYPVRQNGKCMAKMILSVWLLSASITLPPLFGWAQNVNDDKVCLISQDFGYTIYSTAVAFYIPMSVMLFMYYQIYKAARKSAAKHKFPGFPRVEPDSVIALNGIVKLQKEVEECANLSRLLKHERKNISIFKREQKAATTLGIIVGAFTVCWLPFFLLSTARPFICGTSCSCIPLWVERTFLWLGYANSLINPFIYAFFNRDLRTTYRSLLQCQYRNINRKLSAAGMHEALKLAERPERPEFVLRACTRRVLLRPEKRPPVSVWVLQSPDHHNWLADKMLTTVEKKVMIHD

`OC[C@H]1O[C@@H](n2cnc3c(NC(C4CC4)C4CC4)ncnc32)[C@H](O)[C@@H]1O` was tested. Which inhibition did it give?
The inhibition was < 50%.

Target: T5, 5-hydroxytryptamine receptor 2C (Homo sapiens, UniProt P28335)
T5 sequence (P28335 whole entry): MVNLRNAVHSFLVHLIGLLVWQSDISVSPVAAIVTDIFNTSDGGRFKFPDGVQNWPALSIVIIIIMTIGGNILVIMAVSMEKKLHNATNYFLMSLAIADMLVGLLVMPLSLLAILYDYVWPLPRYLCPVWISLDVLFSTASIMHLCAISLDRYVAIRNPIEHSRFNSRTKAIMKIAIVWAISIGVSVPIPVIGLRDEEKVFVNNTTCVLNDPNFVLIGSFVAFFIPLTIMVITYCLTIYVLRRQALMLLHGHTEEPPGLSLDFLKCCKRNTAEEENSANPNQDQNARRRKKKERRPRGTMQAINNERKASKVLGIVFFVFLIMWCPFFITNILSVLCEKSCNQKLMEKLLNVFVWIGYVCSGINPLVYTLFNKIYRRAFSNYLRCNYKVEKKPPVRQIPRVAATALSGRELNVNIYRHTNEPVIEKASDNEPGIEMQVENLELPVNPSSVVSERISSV
Assay: Displacement of [3H]mesulergine from human 5-HT2CR expressed in Flp-In HEK cell membranes incubated for 90 mins under dark condition by microbeta scintillation counting method
Set-up: species or system HEK293
Conditions: not given

How did the Ki turn out when `CNC(=O)[C@H]1O[C@@H](n2cnc3c(NCc4cccc(I)c4)nc(Cl)nc32)[C@H](O)[C@@H]1O` [NAMODENOSON] was run?
The Ki was 10 µM.

Target: 5-hydroxytryptamine receptor 6 (Homo sapiens) (UniProt P50406)
Assay: Displacement of [3H]LSD from human 5-HT6 receptor expressed in HEK cell membranes at 10 uM incubated for 90 mins under dark condition by microbeta scintillation counting method relative to control
Conditions: HEK293

Chain of 5-hydroxytryptamine receptor 6 (Homo sapiens) (P50406 whole entry): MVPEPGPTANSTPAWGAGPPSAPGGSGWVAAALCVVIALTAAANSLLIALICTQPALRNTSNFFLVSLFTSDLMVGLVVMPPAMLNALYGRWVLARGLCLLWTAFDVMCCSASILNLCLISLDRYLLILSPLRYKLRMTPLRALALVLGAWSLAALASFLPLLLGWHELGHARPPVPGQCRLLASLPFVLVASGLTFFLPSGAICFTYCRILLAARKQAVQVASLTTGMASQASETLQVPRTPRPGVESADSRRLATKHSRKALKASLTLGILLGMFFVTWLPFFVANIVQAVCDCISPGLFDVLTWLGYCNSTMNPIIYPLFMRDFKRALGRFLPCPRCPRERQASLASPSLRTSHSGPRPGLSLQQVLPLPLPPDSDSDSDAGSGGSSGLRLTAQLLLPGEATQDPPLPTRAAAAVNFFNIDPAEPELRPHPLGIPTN

Which inhibition does the source give for `OC[C@H]1O[C@@H](n2cnc3c(NC(C4CC4)C4CC4)ncnc32)[C@H](O)[C@@H]1O` here?
Its inhibition is < 50%.

Target: 5-hydroxytryptamine receptor 1D (Homo sapiens) (UniProt P28221)
Assay: Displacement of [3H]5-CT from human 5-HT1D receptor expressed in HEK-T cell membranes at 10 uM incubated for 90 mins under dark condition by microbeta scintillation counting method relative to control
Conditions: not given

Chain of 5-hydroxytryptamine receptor 1D (Homo sapiens) (P28221 whole entry): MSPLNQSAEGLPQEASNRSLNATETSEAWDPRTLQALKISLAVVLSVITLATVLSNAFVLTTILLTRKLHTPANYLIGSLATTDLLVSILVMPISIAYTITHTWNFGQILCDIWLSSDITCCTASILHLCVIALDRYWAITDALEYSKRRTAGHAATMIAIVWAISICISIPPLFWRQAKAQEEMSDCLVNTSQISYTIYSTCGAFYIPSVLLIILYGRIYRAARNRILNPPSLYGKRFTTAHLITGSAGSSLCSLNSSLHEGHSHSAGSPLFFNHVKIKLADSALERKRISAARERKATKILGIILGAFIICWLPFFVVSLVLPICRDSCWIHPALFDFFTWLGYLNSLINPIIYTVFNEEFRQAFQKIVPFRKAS

Which inhibition does the source give for `OC[C@H]1O[C@@H](n2cnc3c(NC(C4CC4)C4CC4)ncnc32)[C@H](O)[C@@H]1O` here?
Its inhibition is < 50%.

Target: T6, 5-hydroxytryptamine receptor 2C (Homo sapiens) (UniProt P28335)
T6 sequence (whole entry): T5 sequence (P28335 whole entry)
Assay: Displacement of [3H]mesulergine from human 5-HT2CR expressed in Flp-In HEK cell membranes at 10 uM incubated for 90 mins under dark condition by microbeta scintillation counting method relative to control
Conditions: HEK293

`CNC(=O)[C@H]1O[C@@H](n2cnc3c(NCc4cccc(I)c4)nc(Cl)nc32)[C@H](O)[C@@H]1O` [NAMODENOSON] was tested. Which inhibition did it give?
Its inhibition is > 50%.

For `OC[C@H]1O[C@@H](n2cnc3c(NC(C4CC4)C4CC4)ncnc32)[C@H](O)[C@@H]1O`, which inhibition is on record?
The inhibition was 11%.

Target: 5-hydroxytryptamine receptor 1E (Homo sapiens) (UniProt P28566)
Assay: Displacement of [3H]5-HT from human 5-HT1E receptor expressed in HEK cell membranes at 10 uM incubated for 90 mins under dark condition by microbeta scintillation counting method relative to control
Conditions: HEK293

Chain of 5-hydroxytryptamine receptor 1E (Homo sapiens) (P28566 whole entry): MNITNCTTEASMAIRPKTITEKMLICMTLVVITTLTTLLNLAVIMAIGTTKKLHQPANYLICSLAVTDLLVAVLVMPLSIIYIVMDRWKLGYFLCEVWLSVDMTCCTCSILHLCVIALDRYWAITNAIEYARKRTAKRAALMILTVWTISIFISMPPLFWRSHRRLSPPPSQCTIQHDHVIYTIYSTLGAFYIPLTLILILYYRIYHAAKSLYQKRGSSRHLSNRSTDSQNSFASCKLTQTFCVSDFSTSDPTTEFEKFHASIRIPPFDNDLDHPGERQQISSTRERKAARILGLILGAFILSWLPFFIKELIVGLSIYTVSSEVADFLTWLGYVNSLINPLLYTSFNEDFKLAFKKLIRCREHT

Which inhibition does the source give for `OC[C@H]1O[C@@H](n2cnc3c(NC(C4CC4)C4CC4)ncnc32)[C@H](O)[C@@H]1O` here?
The inhibition was < 50%.
